Tests used:
Format in all cases: functional
[1] = system: Raji; experiment: Antitumor activity against human Raji cells assessed as DNA synthesis at 0.1 ug/mL by [3H]thymidine incorporation assay relative to control
[2] = system: Raji; experiment: Antitumor activity against human Raji cells assessed as DNA synthesis at 0.5 ug/mL by [3H]thymidine incorporation assay relative to control
[3] = system: Raji; experiment: Antitumor activity against human Raji cells assessed as DNA synthesis at 1 ug/mL by [3H]thymidine incorporation assay relative to control
[4] = system: Raji; experiment: Cell cycle arrest in human Raji cells assessed as accumulation in S phase at 0.1 ug/mL
[5] = system: Raji; experiment: Cell cycle arrest in human Raji cells assessed as accumulation in S phase at 0.5 ug/mL
[6] = system: Raji; experiment: Cell cycle arrest in human Raji cells assessed as accumulation in S phase at 1 ug/mL

For `CO[C@H]1[C@@H](O)[C@H](O[C@H]2[C@@H](OC)C[C@H](O[C@H]3[C@@H](OC)C[C@H](O[C@H]4[C@@H](OC)C[C@H](O[C@H]5CC[C@@]6(C)C(=CC[C@]7(O)[C@@H]6C[C@@H](OC(=O)/C=C/c6ccccc6)[C@@]6(C)[C@]7(O)CC[C@@]6(O)C(C)=O)C5)O[C@@H]4C)O[C@@H]3C)O[C@@H]2C)O[C@H](C)[C@H]1O[C@@H]1O[C@H](CO)[C@@H](O)[C@H](O)[C@H]1O`, the Activity [1] was 41%, the Activity [2] was 21% and the Activity [3] was 14%. For the same molecule, the Activity [4] was 22%, the Activity [5] was 11% and the Activity [6] was 4%.
With `CO[C@H]1[C@@H](O)[C@H](O[C@H]2[C@@H](OC)C[C@H](O[C@H]3[C@@H](OC)C[C@H](O[C@H]4[C@@H](OC)C[C@H](O[C@H]5CC[C@@]6(C)C(=CC[C@]7(O)[C@@H]6C[C@@H](OC(=O)c6ccccc6)[C@@]6(C)[C@]7(O)CC[C@@]6(O)[C@H](C)OC(=O)/C=C/c6ccccc6)C5)O[C@@H]4C)O[C@@H]3C)O[C@@H]2C)O[C@H](C)[C@H]1O[C@@H]1O[C@H](CO)[C@@H](O)[C@H](O)[C@H]1O` the Activity [1] was 15%, the Activity [2] was 14% and the Activity [3] was 14%. For the same molecule, the Activity [4] was 4%, the Activity [5] was 6% and the Activity [6] was 4%.
Molecule `CO[C@@H]1[C@@H](O)[C@H](O[C@H]2[C@@H](OC)C[C@H](O[C@H]3[C@@H](OC)C[C@H](O[C@H]4[C@@H](OC)C[C@H](O[C@H]5CC[C@@]6(C)C(=CC[C@]7(O)[C@@H]6C[C@@H](OC(=O)c6ccccc6)[C@@]6(C)[C@]7(O)CC[C@@]6(O)[C@H](C)OC(=O)/C=C/c6ccccc6)C5)O[C@@H]4C)O[C@@H]3C)O[C@@H]2C)O[C@H](C)[C@H]1O[C@@H]1O[C@H](CO)[C@@H](O)[C@H](O)[C@H]1O` has an Activity [1] of 13%, an Activity [2] of 14% and an Activity [3] of 16%. For the same molecule, the Activity [4] was 5%, the Activity [5] was 4% and the Activity [6] was 5%.
`COC1C[C@H](O[C@H]2[C@@H](OC)C[C@H](O[C@H]3[C@@H](OC)C[C@H](O[C@H]4CC[C@@]5(C)C(=CC[C@]6(O)[C@@H]5C[C@@H](OC(C)=O)[C@@]5(C)[C@]6(O)CC[C@@]5(O)C(C)=O)C4)O[C@@H]3C)O[C@@H]2C)O[C@H](C)[C@H]1O[C@@H]1O[C@H](C)[C@@H](O[C@@H]2O[C@H](CO)[C@@H](O)[C@H](O)[C@H]2O)[C@@H](OC)[C@H]1O` (single isomer, unassigned) showed an Activity [1] of 98%, an Activity [2] of 87% and an Activity [3] of 69%. For the same molecule, the Activity [4] was 30%, the Activity [5] was 28% and the Activity [6] was 26%.
`COC1C[C@H](O[C@H]2[C@@H](OC)C[C@H](O[C@H]3[C@@H](OC)C[C@H](O[C@H]4CC[C@@]5(C)C(=CC[C@]6(O)[C@@H]5C[C@@H](OC(C)=O)[C@@]5(C)[C@]6(O)CC[C@@]5(O)[C@H](C)O)C4)O[C@@H]3C)O[C@@H]2C)O[C@H](C)[C@H]1O[C@@H]1O[C@H](C)[C@@H](O[C@@H]2O[C@H](CO)[C@@H](O)[C@H](O)[C@H]2O)[C@@H](OC)[C@H]1O` (single isomer, unassigned) gave an Activity [1] of 98%, an Activity [2] of 83% and an Activity [3] of 69%. For the same molecule, the Activity [4] was 32%, the Activity [5] was 30% and the Activity [6] was 28%.
With `COC1C[C@H](O[C@@H]2[C@@H](C)O[C@@H](O[C@H]3[C@@H](OC)C[C@H](O[C@H]4CC[C@@]5(C)C(=CC[C@]6(O)[C@@H]5C[C@@H](OC(=O)/C=C/c5ccccc5)[C@@]5(C)[C@]6(O)CC[C@@]5(O)[C@H](C)OC(=O)c5ccccc5)C4)O[C@@H]3C)C[C@H]2OC)O[C@H](C)[C@H]1O[C@@H]1O[C@H](C)[C@@H](O[C@@H]2O[C@H](CO)[C@@H](O)[C@H](O)[C@H]2O)[C@@H](OC)[C@H]1O` (single isomer, unassigned) the Activity [1] was 16%, the Activity [2] was 16% and the Activity [3] was 15%. For the same molecule, the Activity [4] was 6%, the Activity [5] was 5% and the Activity [6] was 3%.
Molecule `COC1C[C@H](O[C@@H]2[C@@H](C)O[C@@H](O[C@H]3[C@@H](OC)C[C@H](O[C@H]4CC[C@@]5(C)C(=CC[C@]6(O)[C@@H]5C[C@@H](OC(C)=O)[C@@]5(C)[C@]6(O)CC[C@@]5(O)[C@H](C)O)C4)O[C@@H]3C)C[C@H]2OC)O[C@H](C)[C@H]1O[C@@H]1O[C@H](C)[C@@H](O[C@@H]2O[C@H](CO)[C@@H](O)[C@H](O)[C@H]2O)[C@@H](OC)[C@H]1O` (single isomer, unassigned) has an Activity [1] of 98%, an Activity [2] of 89% and an Activity [3] of 65%. The Activity [4] was 34%, the Activity [5] was 30% and the Activity [6] was 18%.
`COC1C[C@H](O[C@H]2[C@@H](OC)C[C@H](O[C@H]3[C@@H](OC)C[C@H](O[C@H]4CC[C@@]5(C)C(=CC[C@]6(O)[C@@H]5C[C@@H](OC(=O)/C=C/c5ccccc5)[C@@]5(C)[C@]6(O)CC[C@@]5(O)[C@H](C)O)C4)O[C@@H]3C)O[C@@H]2C)O[C@H](C)[C@H]1O[C@@H]1O[C@H](C)[C@@H](O[C@@H]2O[C@H](CO)[C@@H](O)[C@H](O)[C@H]2O)[C@@H](OC)[C@H]1O` (single isomer, unassigned) gave an Activity [1] of 59%, an Activity [2] of 33% and an Activity [3] of 16%. For the same molecule, the Activity [4] was 33%, the Activity [5] was 18% and the Activity [6] was 10%.

Reference: ChEMBL document CHEMBL1158255, “New polyoxypregnane ester derivatives from Leptadenia hastata” (1996)
